Data as given in patent US7402600B2, “Nitroderivatives of cardiovascular agents” (NicOx S.A., priority 1999, dated 2008).

System: gastric mucosa
Assay: Example F7: gastric tolerability after oral administration in NEM-treated rats
Assay type: in vivo
Settings: rats all receiving NEM, p.o., 0.02 mmoles/Kg of each component
Protocol: Example F1 was repeated with four groups of rats (each group of ten animals), all of them receiving NEM, and orally administered as it follows: • a. control group: the vehicle formed of an aqueous suspension 1% w/v of carboxymethylcellulose, • b. one group (group b—comparative) administered at the same time with 5 mg/Kg (0.02 mmoles/Kg) of flurbiprofen+2.7 mg/Kg (0.02 mmoles/Kg) of 4-thiazolidin carboxilic acid in the same above vehicle, • c. one group (group c—comparative) administered at the same time with 7.4 mg/Kg (0.02 mmoles/Kg) of 4-(nitroxy)butyl ester of flurbiprofen, synthetized according to the method described in WO 94/12463, +2.7 mg/Kg (0.02 mmoles/Kg) of 4-thiazolidin carboxilic in the same above vehicle, • d. one group (group d) administered with 9.8 mg/Kg (0.02 mmoles/Kg) of 3-[2-fluoro-α-methyl-(1,1′-biphenyl)-4-acetyl]thiazolidin-4-carboxylic acid 4-(nitroxy)butyl ester synthetized as from Ex. 1(indicated as NO-Flurbiprofen in Table VII), in the above same vehicle.

In the case of `CC(C(=O)N1CSCC1C(=O)OCCCCO[N+](=O)[O-])c1ccc(-c2ccccc2)c(F)c1` (stereo not drawn) [Example 1, 3-[2-fluoro-α-methyl-(1,1′-biphenyl)-4-acetyl]thiazolidin-4-carboxylic acid 4-(nitroxy)butyl ester], the Gastropathy % incidence is reported as 0%.
